Structures can show the parent of a compound that is named as a salt. Where two headings read alike, the source gives them in different places.
Biological target: T1, human D4 receptor (D4.2 sub-type) (Homo sapiens, UniProt P21917, DEL271-302)
T1 sequence (P21917 with tags, fused parts or gaps DEL271-302): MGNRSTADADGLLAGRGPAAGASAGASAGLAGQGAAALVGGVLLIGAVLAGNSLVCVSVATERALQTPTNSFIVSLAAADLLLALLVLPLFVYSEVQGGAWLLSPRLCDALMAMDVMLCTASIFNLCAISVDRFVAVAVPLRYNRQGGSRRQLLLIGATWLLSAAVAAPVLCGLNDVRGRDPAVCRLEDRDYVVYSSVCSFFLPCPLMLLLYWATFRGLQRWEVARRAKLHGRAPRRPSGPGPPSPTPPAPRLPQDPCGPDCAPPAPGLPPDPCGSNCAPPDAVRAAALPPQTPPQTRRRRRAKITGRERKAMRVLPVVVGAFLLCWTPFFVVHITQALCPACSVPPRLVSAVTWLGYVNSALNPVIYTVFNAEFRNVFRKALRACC
Assay: D4 receptor binding assay (3H-spiperone displacement)
Conditions: for Ki: 3H-spiperone 0.25 nM, HEK cell membranes, human D4.2, read-out: D4 RBA Ki; for inhibition at 1 µM: read-out: D4 RBA % Inhibition (@ 1 μM)
Description: D4 receptor-binding affinities of the compounds were evaluated according to their ability to reduce binding of ^3H-spiperone as compared to the reference compound clozapine. The potency of the test compound to reduce ^3H-spiperone binding directly correlated to its binding affinity for the receptor.
[…] (human embryonic kidney) cells stably transfected with human D4 receptor (D4.2 sub-type) were grown in NUNC cell factories for 5 days (75% confluency) without a media change and removed with versene (approximately 19 mg of cells per cell factory tray). The cells were then centrifuged in a Sorval centrifuge for 10 min, 5000 rpm (GS3 rotor) and the pellets quickly frozen in liquid nitrogen and stored at −80° C. until used in binding assay. When used in the assay, cells were thawed on ice for 20 min and then 10 mL of incubation buffer (50 mM Tris, 1 mM EDTA, 4 mM MgCl2, 5 mM KCl, 1.5 mM CaCl2, 120 mM NaCl, pH 7.4) was added. The cells were then vortexed to resuspend pellet and homogenized with a Kinematica, CH-6010 Kriens-LU, homogenizer for 15 seconds at setting 7. Concentration of receptor protein was determined using the Pierce BCA assay.
The incubation was started by the addition of 100 μl (50 μg protein) membrane homogenate to a solution of 300 μl incubation buffer and 100 μl (0.25 nM final conc.) ^3H-spiperone (90 Ci/mmol, Amersham, diluted in borosilicate glass vial) in 96-well polypropylene plates (1 mL per well). The plates were vortexed and incubated at room temperature for 90 minutes. The binding reaction was stopped by filtering using a Packard Harvester. The samples were filtered under vacuum over glass fibre filter plates (Whatman GF/B) presoaked for 2 hours in 0.3% polyethylenimine (PEI) in 50 mM Tris buffer (pH 7.4). The filters were then washed 6 times with 7 mL ice cold 50 mM Tris buffer (pH 7.4). The filter plates were dried overnight and 35 μl of Microscint-O (Packard) was added. The plates were sealed and counted in the Packard Top Count (3 minutes per well).
The incubation was started by the addition of 100 μl (50 μg protein) membrane homogenate to a solution of 200 μl incubation buffer, 100 μl ^3H-spiperone (90 Ci/mmol, Amersham, diluted in borosilicate glass vial to 0.25 nM final conc.) and 100 μl (30 μM final conc.) of fresh dopamine (Research Biochemicals Inc., light protected and dissolved in incubation buffer) in 96-well polypropylene plates (1 mL per well). The plates were vortexed and incubated at room temperature for 90 minutes at which time the binding reaction was stopped by filtering. The filters were washed and counted using the same procedure as in the total binding assay described above to give the non-specific binding value (NSB).
The incubation was started by the addition, in 96-well polypropylene plates (1 mL per well), of 100 μl (50 μg protein) membrane homogenate to a solution of 200 μl incubation buffer, 100 μl (0.25 nM final conc.) ^3H-spiperone (90 Ci/mmol, Amersham, diluted in borosilicate glass vial) and 100 μl of test compound that was prepared from 1 mM stock dissolved in DMSO and stored at −20° C. in polypropylene cryogenic storage vials until dilution in incubation buffer in 96-well polypropylene plates. The plates were vortexed and incubated at room temperature for 90 minutes at which time the binding reaction was stopped by filtering. The filters were washed and counted using the same procedure as in the total binding assay described above to give the displacement binding value (BD).
The test compounds were initially assayed at 1 and 0.1 μM and then at a range of concentrations chosen such that the middle dose would cause about 50% inhibition of ^3H-spiperone binding. Specific binding in the absence of test compound (B0) was the difference of total binding (BT) minus non-specific binding (NSB) and similarly specific binding (in the presence of test compound) (B) was the difference of displacement binding (BD) minus non-specific binding (NSB). […]

[1] = @ 1 μM test compound, 3H-spiperone binding

| inhibition at 1 µM [1] [%] | Compound | further results |
| --- | --- | --- |
|  | c1cncc(CNCCCOc2cccc(-c3noc4ccsc34)c2)c1 [Compound 8, pyridin-3-ylmethyl-[3-(3-thieno[2,3-d]isoxazol-3-yl-phenoxy)-propyl]-amine] | Ki: 76 nM |
|  | c1cc(OCCCNCc2cccs2)cc(-c2noc3ccsc23)c1 [Compound 6, [3-(3-thieno[2,3-d]isoxazol-3-yl-phenoxy)-propyl]-thiophen-2-ylmethylamine] | Ki: 27 nM |
| 46 | FC(F)(F)c1ccccc1CNCCCOc1cccc(-c2noc3ccsc23)c1 [Compound 57, [3-(3-thieno[2,3-d]isoxazol-3-yl-phenoxy)-propyl]-(2-trifluoromethylbenzyl)-amine] |  |
| 99 | Clc1ccc(CNCCOc2cccc(-c3noc4ccsc34)c2)cc1Cl [Compound 22, (3,4-dichloro-benzyl)-[2-(3-thieno[2,3-d]isoxazol-3-yl-phenoxy)-ethyl]-amine] |  |
| 41 | c1cc(OCCN2CCCC2)cc(-c2noc3ccsc23)c1 [Compound 61, 3-[3-(2-pyrrolidin-1-yl-ethoxy)-phenyl]-thieno[2,3-d]isoxazole] |  |
| 95 | c1cc(OCCNCc2cccs2)cc(-c2noc3ccsc23)c1 [Compound 24, [2-(3-thieno[2,3-d]isoxazol-3-yl-phenoxy)-ethyl]-thiophen-2-ylmethyl-amine] |  |
| 96 | c1cc(OCCCNC2Cc3ccccc3C2)cc(-c2noc3ccsc23)c1 [Compound 44, indan-2-yl-[3-(3-thieno[2,3-d]isoxazol-3-yl-phenoxy)-propyl]-amine] |  |
| 83 | c1cc(OCCN2CCCCC2)cc(-c2noc3ccsc23)c1 [Compound 48, 3-[3-(2-piperidin-1-yl-ethoxy)-phenyl]-thieno[2,3-d]isoxazole] |  |
| 93 | Fc1ccccc1CNCCOc1cccc(-c2noc3ccsc23)c1 [Compound 34, (2-fluoro-benzyl)-[2-(3-thieno[2,3-d]isoxazol-3-yl-phenoxy)-ethyl]-amine] |  |
| 93 | c1cncc(CNCCOc2cccc(-c3noc4ccsc34)c2)c1 [Compound 25, pyridin-3-ylmethyl-[2-(3-thieno[2,3-d]isoxazol-3-yl-phenoxy)-ethyl]-amine] |  |
|  | c1ccc(CNCCOc2cccc(-c3noc4ccsc34)c2)cc1 [Compound 16, benzyl-[2-(3-thieno[2,3-d]isoxazol-3-yl-phenoxy)-ethyl]-amine] | Ki: 7.6 nM |
| 95 | Fc1ccc(CNCCOc2cccc(-c3noc4ccsc34)c2)c(F)c1 [Compound 49, (2,4-difluoro-benzyl)-[2-(3-thieno[2,3-d]isoxazol-3-yl-phenoxy)-ethyl]-amine] |  |
| 78 | c1ccc(N2CCN(CCOc3cccc(-c4noc5ccsc45)c3)CC2)cc1 [Compound 28, 3-{3-[2-(4-phenyl-piperazin-1-yl)-ethoxy]-phenyl}-thieno[2,3-d]isoxazole] |  |
| 73 | OC(CNCCCOc1cccc(-c2noc3ccsc23)c1)c1ccccc1 (stereo not shown) [Compound 9, 1-phenyl-2-[3-(3-thieno[2,3-d]isoxazol-3-yl-phenoxy)-propylamino]-ethanol] |  |
|  | c1cc(OCCNC23CC4CC(CC(C4)C2)C3)cc(-c2noc3ccsc23)c1 [Compound 47, adamantan-1-yl-[2-(3-thieno[2,3-d]isoxazol-3-yl-phenoxy)-ethyl]-amine] | Ki: 23 nM |
| 60 | NS(=O)(=O)c1ccc(CNCCCOc2cccc(-c3noc4ccsc34)c2)cc1 [Compound 14, 4-{[3-(3-thieno[2,3-d]isoxazol-3-yl-phenoxy)-propylamino]-methyl}-benzenesulfonamide] |  |

| inhibition at 1 µM [1] [%] | Compound | further results |
| --- | --- | --- |
| 94 | c1cc(OCCCN2CCCCC2)cc(-c2noc3ccsc23)c1 [Compound 54, 3-[3-(3-piperidin-1-yl-propoxy)-phenyl]-thieno[2,3-d]isoxazole] |  |
| 92 | Fc1ccc(CNCCCOc2cccc(-c3noc4ccsc34)c2)c(F)c1 [Compound 55, (2,4-difluoro-benzyl)-[3-(3-thieno[2,3-d]isoxazol-3-yl-phenoxy)-propyl]-amine] |  |
| 52 | c1cc(OCCCN2CCc3ccccc3C2)cc(-c2noc3ccsc23)c1 [Compound 45, 2-[3-(3-thieno[2,3-d]isoxazol-3-yl-phenoxy)-propyl]-1,2,3,4-tetrahydroisoquinoline] |  |
| 91 | Fc1ccc(N2CCN(CCCOc3cccc(-c4noc5ccsc45)c3)CC2)cc1 [Compound 11, 3-(3-{3-[4-(4-fluoro-phenyl)-piperazin-1-yl]-propoxy}-phenyl)-thieno[2,3-d]isoxazole] |  |
| 96 | FC(F)(F)c1ccc(CNCCOc2cccc(-c3noc4ccsc34)c2)cc1 [Compound 52, [2-(3-thieno[2,3-d]isoxazol-3-yl-phenoxy)-ethyl]-(4-trifluoromethylbenzyl)-amine] |  |
|  | c1cc(OCCNC2Cc3ccccc3C2)cc(-c2noc3ccsc23)c1 [Compound 46, indan-2-yl-[2-(3-thieno[2,3-d]isoxazol-3-yl-phenoxy)-ethyl]-amine hydrochloride] | Ki: 36.1 nM |
|  | c1ccc(C2CCN(CCOc3cccc(-c4noc5ccsc45)c3)CC2)cc1 [Compound 30, 3-{3-[2-(4-phenyl-piperidin-1-yl)-ethoxy]-phenyl}-thieno[2,3-d]isoxazole hydrochloride] | inhibition at 1 µM: 68% |
| 64 | Fc1cccc(F)c1CNCCCOc1cccc(-c2noc3ccsc23)c1 [Compound 56, (2,6-difluoro-benzyl)-[3-(3-thieno[2,3-d]isoxazol-3-yl-phenoxy)-propyl]-amine] |  |
| 89 | Clc1ccccc1CNCCCOc1cccc(-c2noc3ccsc23)c1 [Compound 40, (2-chloro-benzyl)-[3-(3-thieno[2,3-d]isoxazol-3-yl-phenoxy)-propyl]-amine] |  |
|  | Cc1ccc(CNCCCOc2cccc(-c3noc4ccsc34)c2)cc1 [Compound 39, (4-methyl-benzyl)-[3-(3-thieno[2,3-d]isoxazol-3-yl-phenoxy)-propyl]-amine] | Ki: 20 nM |
|  | COc1cccc(CNCCOc2cccc(-c3noc4ccsc34)c2)c1 [Compound 36, (3-methoxy-benzyl)-[2-(3-thieno[2,3-d]isoxazol-3-yl-phenoxy)-ethyl]-amine] | Ki: 13 nM |
| 54 | c1cc(OCCN2CCCCCCC2)cc(-c2noc3ccsc23)c1 [Compound 63, 3-[3-(2-azocan-1-yl-ethoxy)-phenyl]-thieno[2,3-d]isoxazole] |  |
|  | Fc1ccc(CNCCCOc2cccc(-c3noc4ccsc34)c2)cc1F [Compound 42, (3,4-difluoro-benzyl)-[3-(3-thieno[2,3-d]isoxazol-3-yl-phenoxy)-propyl]-amine] | Ki: 47 nM |
| 65 | NS(=O)(=O)c1ccc(CCNCCCOc2cccc(-c3noc4ccsc34)c2)cc1 [Compound 15, 4-{2-[3-(3-thieno[2,3-d]isoxazol-3-yl-phenoxy)-propylamino]-ethyl}-benzenesulfonamide] |  |
| 90 | c1cc(OCCN2CCCCCC2)cc(-c2noc3ccsc23)c1 [Compound 62, 3-[3-(2-azepan-1-yl-ethoxy)-phenyl]-thieno[2,3-d]isoxazole] |  |

Source: patent publication US7091199B1, “Thienoisoxazole phenoxy unsubstituted ethyl and propyl derivatives useful as d4 antagonists” (Aventis Pharmaceuticals Inc., priority 1999, dated 2006)
